Assay results reported in ChEMBL document CHEMBL4823289, “Conformational-Analysis-Guided Discovery of 2,3-Disubstituted Pyridine IDO1 Inhibitors” (ACS Med Chem Lett, 2021).

Experiments:
[1] = biological target: T1, Indoleamine 2,3-dioxygenase 1 (Homo sapiens, UniProt P14902); experiment: Inhibition of IDO1 in IFNgamma-stimulated human HeLa cells preincubated for 2 hrs followed by recombinant human IFNgamma stimulation and measured after 18 hrs by fluorescence based microplate reader assay
[2] = biological target: Indoleamine 2,3-dioxygenase 1 (Mus musculus, UniProt P28776); experiment: Inhibition of IDO1 in IFNgamma-stimulated mouse M109 cells preincubated for 2 hrs followed by recombinant murine IFNgamma stimulation and measured after 18 hrs by fluorescence based microplate reader assay; format: cell-based
Chain of Indoleamine 2,3-dioxygenase 1 (Mus musculus, UniProt P28776) (P28776 whole entry): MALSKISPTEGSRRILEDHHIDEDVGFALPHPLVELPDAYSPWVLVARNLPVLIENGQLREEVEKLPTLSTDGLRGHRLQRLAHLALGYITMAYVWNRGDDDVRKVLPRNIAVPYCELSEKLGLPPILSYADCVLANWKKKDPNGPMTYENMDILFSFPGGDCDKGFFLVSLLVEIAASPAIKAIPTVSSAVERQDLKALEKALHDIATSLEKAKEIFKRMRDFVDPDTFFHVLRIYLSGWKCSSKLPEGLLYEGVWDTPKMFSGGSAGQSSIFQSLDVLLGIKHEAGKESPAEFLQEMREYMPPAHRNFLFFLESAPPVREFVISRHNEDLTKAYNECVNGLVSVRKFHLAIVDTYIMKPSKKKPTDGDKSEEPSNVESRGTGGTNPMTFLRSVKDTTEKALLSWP

[3] = Metabolic stability in human liver microsomes assessed as parent compound remaining at 0.5 uM after 10 mins incubation by LC-MS/MS analysis relative to control; format: ADME, Microsome; details: read-out: Activity
[4] = Metabolic stability in mouse liver microsomes assessed as parent compound remaining at 0.5 uM after 10 mins incubation by LC-MS/MS analysis relative to control; format: ADME, Microsome; details: read-out: Activity
[5] = Metabolic stability in rat liver microsomes assessed as parent compound remaining at 0.5 uM after 10 mins incubation by LC-MS/MS analysis relative to control; format: ADME, Microsome; details: read-out: Activity
[6] = biological target: T1, Indoleamine 2,3-dioxygenase 1; experiment: Inhibition of IDO1 in IFNgamma/LPS-stimulated human whole blood preincubated for 4 hrs followed by IFNgamma/LPS stimulation and incubated for 18 hrs by Rapid-fire mass spectrometry analysis; format: tissue-based
[7] = Protein binding in human assessed as free fraction relative to control; format: ADME
[8] = Protein binding in mouse assessed as free fraction relative to control; format: ADME
[9] = AUC (0 to 24 hrs) in human SK-OV-3 cells xenografted in nu/nu mouse xenograft model measured in tumor at 60 mg/kg, po QD; format: ADME, organism-based; parameters: time < 24 hr, route oral, dose 60 mg/kg
[10] = biological target: Indoleamine 2,3-dioxygenase 1 (Mus musculus) (UniProt P28776); experiment: In vivo inhibition of IDO1 in mouse xenografted with human SK-OV-3 cells assessed as reduction in tumor kynurenine AUEC at 60 mg/kg, po QD for 5 days measured up to 24 hrs after dosing relative to control; format: functional, organism-based; parameters: scale not given: the % may be the effect or the level left; details: time 5.0 day
Chain of Indoleamine 2,3-dioxygenase 1 (Mus musculus) (P28776 whole entry, looked up): as the sequence (P28776 whole entry) above

T1 sequence (P14902 whole entry): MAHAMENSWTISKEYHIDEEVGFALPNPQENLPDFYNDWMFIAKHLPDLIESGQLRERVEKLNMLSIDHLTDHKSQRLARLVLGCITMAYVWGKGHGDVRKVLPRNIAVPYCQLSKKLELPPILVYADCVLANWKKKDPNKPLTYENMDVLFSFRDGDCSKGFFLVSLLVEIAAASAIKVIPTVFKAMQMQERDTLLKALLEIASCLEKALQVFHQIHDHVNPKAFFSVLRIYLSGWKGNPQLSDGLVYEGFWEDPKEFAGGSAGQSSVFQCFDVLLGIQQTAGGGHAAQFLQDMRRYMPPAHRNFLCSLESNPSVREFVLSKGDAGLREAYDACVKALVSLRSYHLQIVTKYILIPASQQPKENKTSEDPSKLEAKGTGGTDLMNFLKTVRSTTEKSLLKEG

SMILES | IC50 [1] [nM] | IC50 [2] [nM] | remaining at 10 min, 0.5 µM [3] [%] | remaining at 10 min, 0.5 µM [4] [%] | remaining at 10 min, 0.5 µM [5] [%] | IC50 [6] [nM] | Activity [7] [%] | Activity [8] [%] | AUC at 24 h [9] [µM·h] | Activity [10] [%]
Cc1cc([C@H]2CC[C@@H]([C@@H](C)NC(=O)c3ccc(Cl)cc3)CC2)ccn1 | 12 | 16 | 1 | 1 | – | – | – | – | – | –
Cc1c(F)nccc1[C@H]1CC[C@@H]([C@@H](C)NC(=O)c2ccc(Cl)cc2)CC1 | 5 | 3 | 0 | 1 | 1 | 47 | – | – | – | –
CC[C@@H](NC(=O)c1ccc(Cl)cc1)[C@H]1CC[C@H](c2nccc(OC)n2)CC1 | 80 | 193 | 20 | 42 | – | – | – | – | – | –
COC[C@@H](NC(=O)c1ccc(Cl)cc1)[C@H]1CC[C@@H](c2ccnc(OC)c2C(F)F)CC1 | 2 | 11 | 68 | 15 | 35 | 4.1 | – | – | – | –
Cc1cnccc1[C@H]1CC[C@@H]([C@@H](C)NC(=O)c2ccc(Cl)cc2)CC1 | 7 | 3 | 16 | 15 | – | – | – | – | – | –
C[C@@H](NC(=O)c1ccc(Cl)cc1)[C@H]1CC[C@@H](c2ccnc3ccc(F)cc32)CC1 | – | – | – | – | – | – | < 0.3 | < 0.2 | – | –
CC[C@@H](NC(=O)c1ccc(Cl)cc1)[C@H]1CC[C@H](c2cncc(OC)c2)CC1 | 19 | 31 | 80 | 28 | – | – | – | – | – | –
C[C@@H](C(=O)Nc1ccc(Cl)cc1)[C@H]1CC[C@@H](c2ccnc3ccc(F)cc32)CC1 | – | – | – | – | – | – | – | – | 18 | 65
Cc1nccc([C@H]2CC[C@@H]([C@@H](C)NC(=O)c3ccc(Cl)cc3)CC2)c1C | 4 | 6 | 30 | 3 | – | – | – | – | – | –
CC[C@@H](NC(=O)c1ccc(Cl)cc1)[C@H]1CC[C@H](c2ccc(OC(F)F)cc2)CC1 | 14 | 75 | 94 | 90 | – | – | – | – | – | –

The next lines start with the values.

IC50 [1] [nM] | IC50 [2] [nM] | remaining at 10 min, 0.5 µM [3] [%] | remaining at 10 min, 0.5 µM [4] [%] | remaining at 10 min, 0.5 µM [5] [%] | IC50 [6] [nM] | Activity [7] [%] | Activity [8] [%] | AUC at 24 h [9] [µM·h] | Activity [10] [%] | SMILES
40 | 40 | 89 | 56 | – | – | – | – | – | – | CC[C@@H](NC(=O)c1ccc(Cl)cc1)[C@H]1CC[C@H](c2cccc(C(F)(F)F)n2)CC1
475 | > 1000 | 3 | 1 | – | – | – | – | – | – | CC[C@@H](NC(=O)c1ccc(Cl)cc1)[C@H]1CC[C@@H](c2cccnc2OC)CC1
2 | 6 | 85 | 30 | 57 | 4.4 | – | – | – | – | CC[C@@H](NC(=O)c1ccc(Cl)cc1)[C@H]1CC[C@@H](c2ccnc(OC)c2C(F)F)CC1
26 | 97 | 88 | 65 | – | – | – | – | – | – | CC[C@@H](NC(=O)c1ccc(Cl)cc1)[C@H]1CC[C@H](c2cccc(=O)n2C)CC1
48 | 121 | 56 | 8 | – | – | – | – | – | – | CC[C@@H](NC(=O)c1ccc(Cl)cc1)[C@H]1CC[C@H](c2cccc(C)n2)CC1
43 | 196 | 0 | 0 | – | – | – | – | – | – | CC[C@@H](NC(=O)c1ccc(Cl)cc1)[C@H]1CC[C@@H](c2cccc3c2OC(F)(F)O3)CC1
2 | 7 | 71 | 15 | 34 | 2.8 | – | – | – | – | CC[C@@H](NC(=O)c1ccc(Cl)cc1)[C@H]1CC[C@@H](c2ccnc(OC)c2C)CC1
3 | 22 | 68 | 15 | 21 | 11 | – | – | – | – | CC[C@@H](NC(=O)c1ccc(Cl)cc1)[C@H]1CC[C@@H](c2ccnc(OC)c2F)CC1
